Source: paper PMC9221546, “New Phenylglycinamide Derivatives with Hybrid Structure as Candidates for New Broad-Spectrum Anticonvulsants” (Cells, 2022)
Read-outs that look alike come from different tables or passages of the source.

Tests used:
[1] = tested on: 6 Hz (32 mA) seizures in mice; assay: 6 Hz (32 mA) psychomotor seizure model; format: in vivo; details: Mus musculus, ip; for responders at 100 mg/kg: 100 mg/kg i.p., 0.5 h; for ED50: mice, pretreatment time 0.5 h, (95% confidence limits)
Summary of the method: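 Adult male Albino Swiss mice (22–26 g), compounds suspended in 1% aqueous Tween 80, single i.p. injection, tested 0.5 h post-dose. Screening at 100 mg/kg with four mice per group; ED50 from 3–4 groups of eight. PI = TD50 (chimney test) / ED50.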

[2] = target: T1, Calcium Cav1.2 channels (dihydropyridine site) (Homo sapiens, UniProt Q13936); assay: Calcium Cav1.2 channel binding (dihydropyridine site, antagonist radioligand); details: 10 µM; human recombinant HEK-293 cell; read-out: % Inhibition of Control Specific Binding, Cav1.2 (dihydropyridine site)
T1 construct: host or cells: HEK-293
T1 sequence (Q13936 whole entry): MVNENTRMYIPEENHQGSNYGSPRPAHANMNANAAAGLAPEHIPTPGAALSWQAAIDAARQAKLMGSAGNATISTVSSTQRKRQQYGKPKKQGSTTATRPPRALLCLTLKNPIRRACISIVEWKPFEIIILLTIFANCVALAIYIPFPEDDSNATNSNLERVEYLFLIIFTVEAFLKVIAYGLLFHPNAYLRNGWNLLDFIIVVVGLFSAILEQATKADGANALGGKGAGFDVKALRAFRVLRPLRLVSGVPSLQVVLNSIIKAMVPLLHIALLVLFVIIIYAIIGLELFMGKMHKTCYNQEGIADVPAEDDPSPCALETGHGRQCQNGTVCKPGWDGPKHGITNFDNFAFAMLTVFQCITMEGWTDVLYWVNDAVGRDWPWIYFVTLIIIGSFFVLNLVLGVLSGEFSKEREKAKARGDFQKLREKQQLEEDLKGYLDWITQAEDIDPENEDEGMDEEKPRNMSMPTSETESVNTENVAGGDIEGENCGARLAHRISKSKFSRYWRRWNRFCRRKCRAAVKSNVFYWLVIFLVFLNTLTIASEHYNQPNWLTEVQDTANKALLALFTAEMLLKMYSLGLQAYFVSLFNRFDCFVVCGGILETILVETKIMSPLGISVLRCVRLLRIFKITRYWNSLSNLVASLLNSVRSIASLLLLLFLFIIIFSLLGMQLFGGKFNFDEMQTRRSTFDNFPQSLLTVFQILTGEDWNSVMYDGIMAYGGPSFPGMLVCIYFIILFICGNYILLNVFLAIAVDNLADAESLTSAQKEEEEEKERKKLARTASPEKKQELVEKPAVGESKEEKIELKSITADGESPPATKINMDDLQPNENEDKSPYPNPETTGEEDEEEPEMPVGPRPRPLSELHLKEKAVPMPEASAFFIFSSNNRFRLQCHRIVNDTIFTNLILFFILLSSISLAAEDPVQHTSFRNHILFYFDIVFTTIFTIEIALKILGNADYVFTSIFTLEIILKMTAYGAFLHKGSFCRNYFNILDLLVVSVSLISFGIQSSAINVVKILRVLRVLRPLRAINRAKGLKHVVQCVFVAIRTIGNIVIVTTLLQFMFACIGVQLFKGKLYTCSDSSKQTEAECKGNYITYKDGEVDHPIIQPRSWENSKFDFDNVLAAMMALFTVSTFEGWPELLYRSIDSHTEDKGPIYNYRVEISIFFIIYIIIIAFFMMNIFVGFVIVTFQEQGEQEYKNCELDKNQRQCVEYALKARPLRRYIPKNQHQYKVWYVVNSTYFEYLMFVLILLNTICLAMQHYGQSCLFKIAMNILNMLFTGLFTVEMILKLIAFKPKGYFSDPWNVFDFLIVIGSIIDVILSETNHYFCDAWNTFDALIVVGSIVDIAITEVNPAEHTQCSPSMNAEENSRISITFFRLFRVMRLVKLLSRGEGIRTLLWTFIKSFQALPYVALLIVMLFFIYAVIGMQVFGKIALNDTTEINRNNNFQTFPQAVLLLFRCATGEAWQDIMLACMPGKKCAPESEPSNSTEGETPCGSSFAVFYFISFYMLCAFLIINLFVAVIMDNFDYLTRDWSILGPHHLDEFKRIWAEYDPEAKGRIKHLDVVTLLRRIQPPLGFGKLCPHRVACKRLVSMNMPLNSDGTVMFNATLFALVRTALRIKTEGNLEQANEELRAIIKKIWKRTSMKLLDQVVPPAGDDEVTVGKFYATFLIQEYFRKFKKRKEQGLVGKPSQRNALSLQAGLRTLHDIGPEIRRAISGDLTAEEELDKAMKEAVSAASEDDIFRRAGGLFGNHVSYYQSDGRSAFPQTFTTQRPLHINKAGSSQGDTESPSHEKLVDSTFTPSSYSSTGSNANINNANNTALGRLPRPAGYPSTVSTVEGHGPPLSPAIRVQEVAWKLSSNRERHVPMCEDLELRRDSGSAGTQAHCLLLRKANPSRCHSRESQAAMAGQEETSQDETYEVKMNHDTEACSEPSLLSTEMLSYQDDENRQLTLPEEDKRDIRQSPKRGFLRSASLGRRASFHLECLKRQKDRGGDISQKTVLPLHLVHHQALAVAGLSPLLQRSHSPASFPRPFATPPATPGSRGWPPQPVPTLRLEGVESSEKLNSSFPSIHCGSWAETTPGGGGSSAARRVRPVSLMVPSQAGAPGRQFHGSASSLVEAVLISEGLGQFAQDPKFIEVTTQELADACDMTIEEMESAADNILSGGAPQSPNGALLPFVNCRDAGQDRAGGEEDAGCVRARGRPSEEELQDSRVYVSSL
T1 sequence (Q08289 whole entry partner): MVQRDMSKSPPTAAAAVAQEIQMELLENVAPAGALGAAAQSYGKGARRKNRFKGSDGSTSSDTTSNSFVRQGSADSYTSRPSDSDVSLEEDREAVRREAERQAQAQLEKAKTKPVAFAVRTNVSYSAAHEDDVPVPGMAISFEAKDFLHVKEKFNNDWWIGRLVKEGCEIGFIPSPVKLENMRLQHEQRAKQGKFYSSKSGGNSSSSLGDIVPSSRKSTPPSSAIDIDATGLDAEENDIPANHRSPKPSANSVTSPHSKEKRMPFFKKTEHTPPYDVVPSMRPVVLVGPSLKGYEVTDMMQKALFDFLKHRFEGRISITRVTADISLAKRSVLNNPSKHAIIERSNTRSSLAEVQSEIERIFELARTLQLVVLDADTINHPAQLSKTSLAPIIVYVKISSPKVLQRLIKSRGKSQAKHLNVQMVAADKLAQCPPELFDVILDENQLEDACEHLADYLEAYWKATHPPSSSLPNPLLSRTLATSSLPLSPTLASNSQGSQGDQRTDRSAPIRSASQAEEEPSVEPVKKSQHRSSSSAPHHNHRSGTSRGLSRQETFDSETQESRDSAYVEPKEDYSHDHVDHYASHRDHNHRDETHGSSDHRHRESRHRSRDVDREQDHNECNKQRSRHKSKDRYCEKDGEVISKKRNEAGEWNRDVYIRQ
T1 sequence (P54289 25-956 partner limits assumed): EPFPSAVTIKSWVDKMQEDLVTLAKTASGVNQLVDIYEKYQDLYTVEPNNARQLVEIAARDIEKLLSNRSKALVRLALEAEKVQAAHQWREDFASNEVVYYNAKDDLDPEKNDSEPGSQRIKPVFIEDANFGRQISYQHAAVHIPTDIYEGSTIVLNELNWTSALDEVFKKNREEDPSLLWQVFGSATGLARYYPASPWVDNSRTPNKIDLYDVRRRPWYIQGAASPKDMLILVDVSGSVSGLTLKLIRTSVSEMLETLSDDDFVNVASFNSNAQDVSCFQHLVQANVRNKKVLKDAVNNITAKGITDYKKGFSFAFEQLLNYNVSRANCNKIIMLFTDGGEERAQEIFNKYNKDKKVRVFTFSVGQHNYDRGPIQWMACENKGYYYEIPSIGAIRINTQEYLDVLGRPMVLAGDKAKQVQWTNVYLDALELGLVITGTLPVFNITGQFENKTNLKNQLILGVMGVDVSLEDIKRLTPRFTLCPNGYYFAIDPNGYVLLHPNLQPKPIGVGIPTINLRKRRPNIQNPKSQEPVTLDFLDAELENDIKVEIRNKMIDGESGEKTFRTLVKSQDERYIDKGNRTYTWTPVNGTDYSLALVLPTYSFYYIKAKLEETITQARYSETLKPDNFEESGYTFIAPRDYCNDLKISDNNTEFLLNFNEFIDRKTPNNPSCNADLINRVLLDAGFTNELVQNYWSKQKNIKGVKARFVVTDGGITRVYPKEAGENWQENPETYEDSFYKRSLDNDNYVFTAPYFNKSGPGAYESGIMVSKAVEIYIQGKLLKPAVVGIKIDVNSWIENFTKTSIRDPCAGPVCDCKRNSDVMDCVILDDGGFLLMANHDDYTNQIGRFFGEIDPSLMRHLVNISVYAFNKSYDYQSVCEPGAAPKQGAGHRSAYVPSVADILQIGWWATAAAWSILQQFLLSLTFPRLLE
T1 sequence (P54289 957-1103 partner limits assumed): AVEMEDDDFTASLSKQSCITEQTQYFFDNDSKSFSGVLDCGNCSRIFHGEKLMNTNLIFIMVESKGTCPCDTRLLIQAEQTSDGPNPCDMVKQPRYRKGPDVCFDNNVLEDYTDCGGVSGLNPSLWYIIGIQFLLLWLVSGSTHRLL
Experimental: Binding/functional studies were carried out commercially in Eurofins Laboratories (Poitiers, France) and Eurofins Panlabs Discovery Services Taiwan, Ltd. (New Taipei City, Taiwan) using testing procedures that were reported previously (for details see Table S2).

TRPV1 (VR1) (h) = target: T2, TRPV1 (VR1) (h) (Homo sapiens, UniProt Q8NER1); assay: TRPV1 (VR1) (h) antagonist effect functional assay; format: cell-based; details: human recombinant CHO cells, read-out: % Inhibition of control agonist response, TRPV1 (antagonist effect)
T2 construct: host or cells: CHO
T2 sequence (Q8NER1 whole entry): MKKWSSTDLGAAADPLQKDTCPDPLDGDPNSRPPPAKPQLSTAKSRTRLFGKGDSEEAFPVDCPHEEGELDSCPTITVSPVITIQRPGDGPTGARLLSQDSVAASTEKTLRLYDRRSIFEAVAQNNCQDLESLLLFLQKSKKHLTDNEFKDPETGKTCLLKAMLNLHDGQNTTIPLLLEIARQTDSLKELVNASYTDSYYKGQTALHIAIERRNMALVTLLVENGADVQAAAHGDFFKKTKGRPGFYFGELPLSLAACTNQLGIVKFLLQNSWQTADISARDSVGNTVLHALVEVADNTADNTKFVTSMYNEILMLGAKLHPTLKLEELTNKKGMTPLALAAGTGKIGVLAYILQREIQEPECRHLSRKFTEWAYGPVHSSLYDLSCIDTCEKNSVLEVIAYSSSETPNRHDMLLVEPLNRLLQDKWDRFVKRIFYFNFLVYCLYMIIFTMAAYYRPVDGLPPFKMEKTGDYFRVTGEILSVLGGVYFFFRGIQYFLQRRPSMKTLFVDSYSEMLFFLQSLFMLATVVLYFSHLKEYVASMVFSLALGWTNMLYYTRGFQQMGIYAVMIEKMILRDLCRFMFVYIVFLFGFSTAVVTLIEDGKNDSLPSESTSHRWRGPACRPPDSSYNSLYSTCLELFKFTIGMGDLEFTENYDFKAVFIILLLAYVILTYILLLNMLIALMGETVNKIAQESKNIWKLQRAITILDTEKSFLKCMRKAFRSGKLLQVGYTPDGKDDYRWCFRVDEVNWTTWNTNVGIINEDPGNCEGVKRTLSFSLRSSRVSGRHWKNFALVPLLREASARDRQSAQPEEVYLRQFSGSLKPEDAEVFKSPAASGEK
Summary of the method: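 Commercial Eurofins radioligand binding and functional panel: [3H]GABA agonist binding for GABAA, antagonist radioligand binding for GABA transporter, cell-based calcium flux antagonist assay for human Cav1.2. TRPV1 antagonism measured in human recombinant CHO cells at 100 µM as % inhibition of control agonist response.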

[3] = tested on: ivPTZ seizure threshold in mice; assay: Timed ivPTZ seizure threshold test; format: in vivo; details: 50 mg/kg i.p., 0.5 h before test; for increase of threshold for generalized clonus with loss of righting reflex / increase of threshold for the first myoclonic twitch: vs control
Experimental: In studies assessing the acute effect of compounds 53 and 60 on the ivPTZ seizure threshold and neuromuscular strength, compounds 53 and 60 was suspended in a 1% solution of Tween 80 and administered i.p., at a dose of 10 mL/kg body weight. Each experimental group consisted of 9–12 animals (ivPTZ seizure threshold test) or 9−10 animals (grip strength test). The timed ivPTZ test was employed to evaluate the acute effect of compounds 53 and 60 on the seizure thresholds for (1) the first myoclonic twitch, (2) generalized clonic seizure with loss of righting reflex, and (3) forelimb tonus. The experimental procedure of the timed ivPTZ test was described in detail elsewhere. The acute effect of compounds 53 and 60 on neuromuscular strength was quantified using the grip-strength apparatus (BIOSEB, Chaville, France) according to the method that is described elsewhere. The results are depicted in Figure 2 (ivPTZ seizure threshold test, see Section 3 Results and Discussion) and Figure 3 (grip strength test, see Section 3 Results and Discussion).
The timed ivPTZ test was employed to further evaluate the effects of compounds 53 and 60 on seizure susceptibility in mice. The ivPTZ seizure test is an extremely sensitive method for assessing seizure thresholds in rodents. In this method, the threshold PTZ dose for several seizure endpoints was determined.
Figure 2 Acute effects of 53 and 60 on the threshold for the first myoclonic twitch (A), generalized clonus (B), and forelimb tonus (C) in the ivPTZ seizure threshold test in mice. Compounds 53 and 60 were administered i.p. 0.5 h before the seizure test. Control animals received vehicle only. Each experimental group consisted of 9–12 animals. Each bar represents the mean (mg/kg PTZ) + SEM. ** p < 0.01, *** p < 0.001, **** p < 0.0001 vs. the control group (Student’s t-test).

[4] = tested on: 6 Hz (44 mA) seizures in mice; assay: 6 Hz (44 mA) seizure model of drug-resistant epilepsy; format: in vivo; details: Mus musculus, ip, pretreatment time 0.5 h, (95% confidence limits)
Experimental: Adult male Albino Swiss mice that weighed between 22 and 26 g were used in the in vivo studies. They were housed under standardized housing conditions in colony cages and had free access to food as well as tap water. The animals were left to adapt under laboratory conditions for 7 days. All procedures involving animals and their care were performed in accordance with the current European Community and Polish legislation on animal experimentation.
In the initial screening studies, four mice per group were randomly assigned to each experimental group (each mouse was used only once). To evaluate the ED50 or TD50 values, 3–4 groups that consisted of eight animals were injected with various doses of tested compounds. The protective indexes (PIs) for the compounds that were investigated and reference ASDs were calculated by dividing the TD50 value, as determined in the chimney test (or rotarod test), by the respective ED50 value, as determined in the MES, scPTZ, or 6 Hz (32 mA or 44 mA) tests (PI = TD50/ED50). The PIs is a measure of the potential therapeutic window of the tested agent.
All substances were suspended in Tween 80 (1% aqueous solution) and administered i.p. as a single injection at a dose of 10 mL/kg. […]
Taking into consideration the potent protection of 53 and 60 in the 6 Hz (32 mA) seizure model, these compounds were also evaluated by applying a higher current intensity of 44 mA. […]

[5] = four mice, read-out: protection in 6 Hz (32 mA) screening
[6] = read-out: 6 Hz (32 mA) screening: number of mice protected/number of mice tested (converted)

Row | SMILES | responders at 100 mg/kg [1, 5] [%] | responders at 100 mg/kg [1, 6] [%] | ED50 [1] [mg/kg] | inhibition at 10 µM [2] [%] | inhibition at 100 µM (TRPV1 (VR1) (h)) [%] | effect on threshold for forelimb tonus [3] | increase of threshold for generalized clonus with loss of righting reflex [3] | increase of threshold for the first myoclonic twitch [3] | ED50 [4] [mg/kg]
1 | CC(=O)NC(C(=O)N1CCN(c2cccc(C(F)(F)F)c2)CC1)c1ccccc1 (stereo not drawn) [Compound 53, N-(2-oxo-1-phenyl-2-(4-(3-(trifluoromethyl)phenyl)piperazin-1-yl)ethyl)acetamide] | 100 | 100 | 29.9 | 4 | 128 | did not, however, produce any significant effect | ~ 40% | ~ 50% | 68
2 | CC(=O)NC(C(=O)N1CCN(c2cccc(OC(F)(F)F)c2)CC1)c1ccccc1 (stereo not drawn) [Compound 60, N-(2-oxo-1-phenyl-2-(4-(3-(trifluoromethoxy)phenyl)piperazin-1-yl)ethyl)acetamide] | 100 | 100 | 24.6 | 7 | 110 | devoid of any significant effects | devoid of any significant effects | ~ 20% | 56.3
